Experimental findings from ChEMBL document CHEMBL1154708, “Identification of a brain penetrant PDE9A inhibitor utilizing prospective design and chemical enablement as a rapid lead optimization strategy” (J Med Chem, 2009) are described below.

For orientation: Kp means tissue or fluid exposure divided by exposure in the circulation.

Data set [1] has as its target T1, High affinity cGMP-specific 3',5'-cyclic phosphodiesterase 9A (Homo sapiens, UniProt O76083). As to the kind of experiment: Inhibition of human recombinant PDE9A expressed in Sf9 cells by SPA.
Data set [2] addresses Dual specificity calcium/calmodulin-dependent 3',5'-cyclic nucleotide phosphodiesterase 1C (Homo sapiens, UniProt Q14123). As to the kind of experiment: Inhibition of human recombinant PDE1C expressed in Sf9 cells by SPA.
Data set [3] is described as follows: Inhibition of PDE2.
The target in data set [4] is cGMP-inhibited 3',5'-cyclic phosphodiesterase 3A (Homo sapiens, UniProt Q14432). As to the kind of experiment: Inhibition of PDE3A.
The target of data set [5] is 3',5'-cyclic-AMP phosphodiesterase 4C (Homo sapiens, UniProt Q08493). As to the kind of experiment: Inhibition of PDE4C.
3',5'-cyclic-AMP phosphodiesterase 4C, sequence (Q08493 whole entry): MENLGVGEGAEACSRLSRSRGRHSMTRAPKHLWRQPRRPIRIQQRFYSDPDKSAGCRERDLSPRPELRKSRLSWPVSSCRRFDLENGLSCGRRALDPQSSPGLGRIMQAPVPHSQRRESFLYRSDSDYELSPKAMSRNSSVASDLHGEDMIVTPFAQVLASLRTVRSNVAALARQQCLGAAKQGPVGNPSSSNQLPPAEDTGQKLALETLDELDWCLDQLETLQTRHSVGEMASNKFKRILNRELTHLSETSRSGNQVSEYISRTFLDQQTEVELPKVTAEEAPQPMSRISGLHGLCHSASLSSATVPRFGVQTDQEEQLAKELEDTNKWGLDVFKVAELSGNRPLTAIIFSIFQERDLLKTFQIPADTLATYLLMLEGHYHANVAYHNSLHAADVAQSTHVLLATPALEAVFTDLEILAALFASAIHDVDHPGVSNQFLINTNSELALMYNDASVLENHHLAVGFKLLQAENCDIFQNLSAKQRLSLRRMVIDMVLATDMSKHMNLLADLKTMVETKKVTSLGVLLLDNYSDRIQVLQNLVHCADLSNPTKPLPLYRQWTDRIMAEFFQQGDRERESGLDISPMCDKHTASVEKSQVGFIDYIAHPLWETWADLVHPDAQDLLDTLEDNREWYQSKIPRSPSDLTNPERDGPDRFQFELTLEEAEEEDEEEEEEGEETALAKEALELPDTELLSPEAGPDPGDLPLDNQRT
Data set [6] deals with cGMP-specific 3',5'-cyclic phosphodiesterase (Homo sapiens, UniProt O76074). As to the kind of experiment: Inhibition of PDE5.
A short description of data set [7]: Inhibition of PDE6.
Data set [8] has as its target 3',5'-cyclic-AMP phosphodiesterase 7B (Homo sapiens, UniProt Q9NP56). As to the kind of experiment: Inhibition of PDE7B.
Data set [9] deals with High affinity cAMP-specific and IBMX-insensitive 3',5'-cyclic phosphodiesterase 8B (Homo sapiens, UniProt O95263). As to the kind of experiment: Inhibition of PDE8B.
High affinity cAMP-specific and IBMX-insensitive 3',5'-cyclic phosphodiesterase 8B, sequence (O95263 whole entry): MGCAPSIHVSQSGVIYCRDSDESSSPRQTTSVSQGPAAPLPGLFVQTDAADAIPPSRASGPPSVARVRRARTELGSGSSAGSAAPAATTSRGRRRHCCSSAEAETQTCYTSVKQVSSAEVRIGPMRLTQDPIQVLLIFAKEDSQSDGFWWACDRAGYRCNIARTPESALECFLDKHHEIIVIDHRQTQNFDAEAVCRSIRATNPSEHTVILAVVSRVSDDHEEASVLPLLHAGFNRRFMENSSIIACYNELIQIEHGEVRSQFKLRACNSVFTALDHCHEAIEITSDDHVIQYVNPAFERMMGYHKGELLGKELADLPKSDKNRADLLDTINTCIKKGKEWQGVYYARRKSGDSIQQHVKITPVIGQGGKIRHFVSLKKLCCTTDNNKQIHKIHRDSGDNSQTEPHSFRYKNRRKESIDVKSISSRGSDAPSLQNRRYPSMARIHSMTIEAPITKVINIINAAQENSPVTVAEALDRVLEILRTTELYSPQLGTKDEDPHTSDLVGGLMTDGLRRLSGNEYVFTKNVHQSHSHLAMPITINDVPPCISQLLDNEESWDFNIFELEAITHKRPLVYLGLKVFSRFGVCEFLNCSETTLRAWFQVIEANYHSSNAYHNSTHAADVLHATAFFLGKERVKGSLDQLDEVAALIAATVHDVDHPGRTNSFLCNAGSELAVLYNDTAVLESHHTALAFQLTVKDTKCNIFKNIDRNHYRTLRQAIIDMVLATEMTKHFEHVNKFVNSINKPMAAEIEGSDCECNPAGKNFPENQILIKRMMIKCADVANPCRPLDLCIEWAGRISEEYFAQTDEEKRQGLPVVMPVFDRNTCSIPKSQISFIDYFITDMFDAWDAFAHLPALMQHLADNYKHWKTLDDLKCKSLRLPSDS
Data set [10] concerns the target cAMP and cAMP-inhibited cGMP 3',5'-cyclic phosphodiesterase 10A (Homo sapiens, UniProt Q9Y233). The data set can be described thus: Inhibition of PDE10.
Data set [11] addresses Dual 3',5'-cyclic-AMP and -GMP phosphodiesterase 11A (Homo sapiens, UniProt Q9HCR9). As to the kind of experiment: Inhibition of PDE11.
A short description of data set [12]: Ratio of drug level in brain to plasma of rat. The settings on record: brain and plasma. Format: ADME, cell-free.
Data set [13] concerns Mus musculus. As to the kind of experiment: Increase in cGMP level in sc dosed CD1 mouse striatum after 30 mins. Type of data set: functional, organism-based.
Data set [14] concerns Mus musculus. As to the kind of experiment: Increase in cGMP level in CD1 mouse striatum at 3.2 mg/kg, sc after 30 mins. Format: functional. The settings on record: route subcutaneous.
Data set [15] relates to Mus musculus. The data set can be described thus: Increase in […] level in CD1 mouse striatum at 10 mg/kg, sc after 30 mins. Format: functional. The settings on record: route subcutaneous. In general terms: cAMP levels reflect the balance of adenylyl cyclase and phosphodiesterase activity.
For data set [16], the system named is Mus musculus. As to the kind of experiment: Increase in […] level in CD1 mouse striatum at 0.32 mg/kg, sc after 30 mins. Type of data set: functional. Conditions: route subcutaneous.
In data set [17] the test system is Mus musculus. The data set can be described thus: Increase in […] level in CD1 mouse striatum at 1 mg/kg, sc after 30 mins. Type of data set: functional. The settings on record: route subcutaneous.
Data set [18] addresses T1, High affinity cGMP-specific 3',5'-cyclic phosphodiesterase 9A. As to the kind of experiment: Binding affinity to PDE9A.

T1 sequence (O76083 whole entry): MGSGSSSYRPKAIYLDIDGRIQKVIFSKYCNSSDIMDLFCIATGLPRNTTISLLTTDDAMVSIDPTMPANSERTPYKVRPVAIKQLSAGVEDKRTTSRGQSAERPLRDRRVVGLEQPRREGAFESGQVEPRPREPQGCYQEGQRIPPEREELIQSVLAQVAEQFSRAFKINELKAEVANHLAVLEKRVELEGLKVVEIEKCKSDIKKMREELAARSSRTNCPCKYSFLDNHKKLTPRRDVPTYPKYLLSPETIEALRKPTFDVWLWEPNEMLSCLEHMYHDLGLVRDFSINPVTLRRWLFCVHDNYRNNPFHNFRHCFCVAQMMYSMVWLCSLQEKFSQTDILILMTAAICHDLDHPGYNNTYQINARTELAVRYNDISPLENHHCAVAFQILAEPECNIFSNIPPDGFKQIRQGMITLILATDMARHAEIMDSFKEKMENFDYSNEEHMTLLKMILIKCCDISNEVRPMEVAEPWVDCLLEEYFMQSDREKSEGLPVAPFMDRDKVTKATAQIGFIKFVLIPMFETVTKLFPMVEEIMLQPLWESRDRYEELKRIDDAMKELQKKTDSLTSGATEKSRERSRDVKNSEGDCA
Dual specificity calcium/calmodulin-dependent 3',5'-cyclic nucleotide phosphodiesterase 1C, sequence (Q14123 whole entry): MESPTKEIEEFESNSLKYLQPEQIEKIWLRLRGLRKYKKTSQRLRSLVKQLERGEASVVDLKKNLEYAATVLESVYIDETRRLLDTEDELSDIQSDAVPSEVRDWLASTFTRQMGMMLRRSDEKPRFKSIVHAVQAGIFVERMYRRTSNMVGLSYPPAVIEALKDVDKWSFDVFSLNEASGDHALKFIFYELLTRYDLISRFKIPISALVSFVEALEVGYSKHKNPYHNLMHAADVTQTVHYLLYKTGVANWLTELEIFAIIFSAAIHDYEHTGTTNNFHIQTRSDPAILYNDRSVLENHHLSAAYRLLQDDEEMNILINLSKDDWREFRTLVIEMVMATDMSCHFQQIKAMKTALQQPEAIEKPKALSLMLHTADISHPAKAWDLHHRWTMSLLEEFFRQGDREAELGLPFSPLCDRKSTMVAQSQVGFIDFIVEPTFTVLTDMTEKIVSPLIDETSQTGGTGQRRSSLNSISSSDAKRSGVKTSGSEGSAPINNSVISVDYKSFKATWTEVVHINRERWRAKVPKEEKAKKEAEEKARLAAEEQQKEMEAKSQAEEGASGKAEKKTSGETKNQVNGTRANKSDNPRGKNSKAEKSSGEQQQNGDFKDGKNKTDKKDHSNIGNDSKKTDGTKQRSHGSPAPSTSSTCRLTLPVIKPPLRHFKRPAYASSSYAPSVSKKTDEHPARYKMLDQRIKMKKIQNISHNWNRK
Dual 3',5'-cyclic-AMP and -GMP phosphodiesterase 11A, sequence (Q9HCR9 whole entry): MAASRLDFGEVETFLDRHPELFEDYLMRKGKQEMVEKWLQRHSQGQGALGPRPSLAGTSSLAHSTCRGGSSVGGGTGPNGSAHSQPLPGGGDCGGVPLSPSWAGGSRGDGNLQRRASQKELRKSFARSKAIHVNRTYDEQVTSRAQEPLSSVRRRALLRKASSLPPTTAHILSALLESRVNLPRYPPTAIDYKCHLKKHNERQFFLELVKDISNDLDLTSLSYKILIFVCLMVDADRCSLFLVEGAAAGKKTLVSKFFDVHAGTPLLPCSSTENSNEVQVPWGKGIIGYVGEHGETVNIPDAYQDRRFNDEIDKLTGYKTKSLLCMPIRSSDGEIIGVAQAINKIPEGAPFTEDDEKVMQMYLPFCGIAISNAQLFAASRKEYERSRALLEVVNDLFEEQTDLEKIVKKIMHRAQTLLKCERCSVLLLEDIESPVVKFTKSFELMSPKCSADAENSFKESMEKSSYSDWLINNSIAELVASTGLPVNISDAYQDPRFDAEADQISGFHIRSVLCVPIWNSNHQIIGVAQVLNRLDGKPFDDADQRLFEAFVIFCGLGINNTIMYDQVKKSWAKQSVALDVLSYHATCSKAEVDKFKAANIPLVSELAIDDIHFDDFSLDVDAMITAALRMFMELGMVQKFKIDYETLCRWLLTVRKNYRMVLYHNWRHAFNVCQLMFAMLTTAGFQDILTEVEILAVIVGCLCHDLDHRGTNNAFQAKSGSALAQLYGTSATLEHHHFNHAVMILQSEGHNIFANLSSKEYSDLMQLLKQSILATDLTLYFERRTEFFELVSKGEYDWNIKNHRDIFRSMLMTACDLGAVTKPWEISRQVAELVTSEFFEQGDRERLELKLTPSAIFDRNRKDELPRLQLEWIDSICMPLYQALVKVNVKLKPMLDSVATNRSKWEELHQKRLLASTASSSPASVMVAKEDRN
3',5'-cyclic-AMP phosphodiesterase 7B, sequence (Q9NP56 whole entry): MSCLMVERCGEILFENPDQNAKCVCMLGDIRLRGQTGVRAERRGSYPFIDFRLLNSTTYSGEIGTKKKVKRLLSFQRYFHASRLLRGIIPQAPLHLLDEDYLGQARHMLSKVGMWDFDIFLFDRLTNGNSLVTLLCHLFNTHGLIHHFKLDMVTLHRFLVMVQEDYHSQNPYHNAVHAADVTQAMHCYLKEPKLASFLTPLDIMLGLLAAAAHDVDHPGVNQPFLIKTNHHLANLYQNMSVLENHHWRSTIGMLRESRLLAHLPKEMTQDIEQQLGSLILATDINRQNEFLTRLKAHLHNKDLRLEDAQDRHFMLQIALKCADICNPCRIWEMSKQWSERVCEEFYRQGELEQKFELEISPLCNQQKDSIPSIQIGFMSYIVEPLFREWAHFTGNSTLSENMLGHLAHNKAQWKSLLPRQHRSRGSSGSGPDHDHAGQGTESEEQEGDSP

For `C[C@@H]1CN(Cc2ccc(C(F)(F)F)nc2)C[C@H]1c1nc2c(cnn2C2CCCC2)c(=O)[nH]1`, the IC50 in [1] (read-out: IC50) is 16 nM; in data set [2], 190 nM.
With `C[C@@H]1CN(Cc2ccc3nccnc3c2)C[C@H]1c1nc2c(cnn2C2CCCC2)c(=O)[nH]1`, the IC50 was 1.8 nM in data set [1] (read-out: IC50); 50 nM in data set [2]; more than 1000 nM in data set [3]; more than 1000 nM in [4]; more than 1000 nM in [5]; 349 nM in data set [6]. Further, the IC50 in data set [7] was 127 nM; in [8], more than 1000 nM; in data set [9], more than 1000 nM; in data set [10], more than 1000 nM; in data set [11] it was more than 1000 nM. Further, the Kp in data set [12] came to 1.4. For the same molecule, the Activity result in the data set with Mus musculus [13] was “Dose-dependent effect”; in the data set on Mus musculus [14] it was 145%; in the data set with Mus musculus [15] it was 215%; in the data set with Mus musculus [16], 110%; with Mus musculus [17] it was 119%.
Take `Cn1cc(-c2ccncc2)c(-c2ccc(OCc3ccc4ccccc4n3)cc2)n1`: in [18], the Activity worked out at 2.1 nM.
Regarding `C[C@H]1CN(Cc2ccc3nccnc3c2)C[C@@H]1c1nc2c(cnn2C2CCCC2)c(=O)[nH]1` (relative stereo), the IC50 was 1.9 nM in data set [1] (read-out: IC50) and 73 nM in [2].
For `C[C@@H]1CN(Cc2cn3ccccc3n2)C[C@H]1c1nc2c(cnn2C2CCCC2)c(=O)[nH]1` (relative stereo), in that order: 12 nM and 220 nM.
As for `CC(C)n1ncc2c(=O)[nH]c([C@@H]3CN(Cc4ccccc4)C[C@H]3C)nc21` (relative stereo), in data set [2], the IC50 is 2100 nM.
For the molecule `C[C@@H]1CN(Cc2ccccc2)C[C@H]1c1nc2c(cnn2C2CCCC2)c(=O)[nH]1` (relative stereo), the results for the IC50 in data set [1] (read-out: IC50) and in data set [2] were 63 nM and 970 nM, respectively.
Consider `Cc1cccc(CN2C[C@@H](C)[C@H](c3nc4c(cnn4C4CCCC4)c(=O)[nH]3)C2)c1` (relative stereo), for which the IC50 in data set [1] (read-out: IC50) was 40 nM; in [1] (read-out: pIC50 (converted)), 38 nM; in data set [2] it was 563 nM.
For the molecule `COc1ccc(CN2C[C@@H](C)[C@H](c3nc4c(cnn4C4CCCC4)c(=O)[nH]3)C2)cn1` (relative stereo), the figures for the IC50 in data set [1] (read-out: IC50) and in data set [2] were 29 nM and 270 nM, respectively.
Taken in the same sequence, the figures for `Cc1cnc(CN2C[C@@H](C)[C@H](c3nc4c(cnn4C4CCCC4)c(=O)[nH]3)C2)cn1` (relative stereo) were 15 nM and 210 nM.
Taken in the same sequence, the figures for `Cc1cc(CN2C[C@@H](C)[C@H](c3nc4c(cnn4C4CCCC4)c(=O)[nH]3)C2)n(C)n1` (relative stereo) were 11 nM and 200 nM.
Taken in the same sequence, the figures for `CC(C)Cn1ncc2c(=O)[nH]c([C@@H]3CN(Cc4ccccc4)C[C@H]3C)nc21` (relative stereo) were 150 nM and 1500 nM.
In the case of `Cc1ncc(CN2C[C@@H](C)[C@H](c3nc4c(cnn4C4CCCC4)c(=O)[nH]3)C2)cn1` (relative stereo), the IC50 in [1] (read-out: IC50) turned out to be 11 nM; in data set [2], 400 nM.
Consider `C[C@@H]1CN(Cc2ccccn2)C[C@H]1c1nc2c(cnn2C2CCCC2)c(=O)[nH]1` (relative stereo), for which the IC50 in data set [1] (read-out: IC50) was determined as 200 nM; in data set [2], 1300 nM.
With `Cc1cc(CN2C[C@@H](C)[C@H](c3nc4c(cnn4C4CCCC4)c(=O)[nH]3)C2)no1` (relative stereo), the figures for the IC50 in data set [1] (read-out: IC50) and in data set [2] were 11 nM and 110 nM, respectively.
